Measured values published in ChEMBL document CHEMBL1128980, “(R)-3-(6-chloro-1-isopropylbenzimidazole-4-carboxamido)quinuclidine: A high affinity ligand for the (R)-zacopride binding site” (Bioorg Med Chem Lett, 1996).

Columns and labels:
[1] = biological target: 5-hydroxytryptamine receptor 4 (Cavia porcellus, UniProt O70528); test: Binding affinity for 5-hydroxytryptamine 4 receptor by displacement of [3H]GR-113808 from guinea pig brain striatum.
[2] = biological target: T1, Serotonin 3 (5-HT3) receptor (Rattus norvegicus, UniProt P35563+Q9JJ16); test: Binding affinity for 5-hydroxytryptamine 3 receptor by displacement of racemic [3H]zacopride from rat cortex
T1 sequence (P35563 whole entry): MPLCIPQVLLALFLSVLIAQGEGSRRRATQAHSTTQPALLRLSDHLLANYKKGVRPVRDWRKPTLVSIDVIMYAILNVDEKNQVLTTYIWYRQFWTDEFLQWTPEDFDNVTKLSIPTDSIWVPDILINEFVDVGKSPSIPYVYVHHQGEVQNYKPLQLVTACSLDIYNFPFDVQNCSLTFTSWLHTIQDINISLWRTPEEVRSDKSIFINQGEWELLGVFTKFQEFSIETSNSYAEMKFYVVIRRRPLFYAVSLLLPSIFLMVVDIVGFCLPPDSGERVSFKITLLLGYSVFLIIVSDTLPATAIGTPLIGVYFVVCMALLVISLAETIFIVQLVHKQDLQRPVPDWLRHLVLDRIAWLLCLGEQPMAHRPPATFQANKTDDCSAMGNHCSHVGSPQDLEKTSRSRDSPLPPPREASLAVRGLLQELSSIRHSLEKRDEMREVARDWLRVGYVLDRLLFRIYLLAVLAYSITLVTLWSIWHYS
T1 sequence (Q9JJ16 whole entry): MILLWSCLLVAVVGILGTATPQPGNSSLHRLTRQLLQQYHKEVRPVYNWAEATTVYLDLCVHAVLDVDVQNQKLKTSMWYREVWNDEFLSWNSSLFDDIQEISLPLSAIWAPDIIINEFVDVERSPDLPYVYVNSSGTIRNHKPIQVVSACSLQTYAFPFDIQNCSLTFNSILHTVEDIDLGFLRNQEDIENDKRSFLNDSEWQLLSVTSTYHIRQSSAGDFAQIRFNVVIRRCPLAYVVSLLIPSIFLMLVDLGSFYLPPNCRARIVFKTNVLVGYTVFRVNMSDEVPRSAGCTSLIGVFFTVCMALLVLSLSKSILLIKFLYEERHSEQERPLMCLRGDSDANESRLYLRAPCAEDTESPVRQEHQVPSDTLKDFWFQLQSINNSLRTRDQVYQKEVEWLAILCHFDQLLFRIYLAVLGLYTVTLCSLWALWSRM

[3] = biological target: T2, 5-hydroxytryptamine receptor 3A (Homo sapiens, UniProt P46098); test: Binding affinity for 5-hydroxytryptamine 3 receptor by displacement of [3H]-BRL 43694 from NG-108-15 cell membranes
T2 sequence (P46098 whole entry): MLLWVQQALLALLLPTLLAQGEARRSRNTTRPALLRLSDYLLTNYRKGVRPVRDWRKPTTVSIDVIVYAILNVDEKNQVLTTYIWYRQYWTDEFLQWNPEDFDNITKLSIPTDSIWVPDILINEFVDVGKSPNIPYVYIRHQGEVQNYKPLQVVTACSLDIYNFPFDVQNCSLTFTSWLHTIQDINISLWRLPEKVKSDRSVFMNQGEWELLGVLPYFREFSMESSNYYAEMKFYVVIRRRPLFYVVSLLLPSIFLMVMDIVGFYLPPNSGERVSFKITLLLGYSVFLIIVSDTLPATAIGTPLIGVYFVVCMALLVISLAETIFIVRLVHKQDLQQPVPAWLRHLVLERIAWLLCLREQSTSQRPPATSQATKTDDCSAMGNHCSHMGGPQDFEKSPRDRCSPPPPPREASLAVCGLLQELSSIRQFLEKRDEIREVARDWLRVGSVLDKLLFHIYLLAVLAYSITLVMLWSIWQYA

[4] = biological target: T2, 5-hydroxytryptamine receptor 3A; test: Binding affinity for 5-hydroxytryptamine 3 receptor by displacement of [3H](R)-zacopride from ondansetron-treated NG-108-15 cell membranes

Sequence of 5-hydroxytryptamine receptor 4 (O70528 whole entry): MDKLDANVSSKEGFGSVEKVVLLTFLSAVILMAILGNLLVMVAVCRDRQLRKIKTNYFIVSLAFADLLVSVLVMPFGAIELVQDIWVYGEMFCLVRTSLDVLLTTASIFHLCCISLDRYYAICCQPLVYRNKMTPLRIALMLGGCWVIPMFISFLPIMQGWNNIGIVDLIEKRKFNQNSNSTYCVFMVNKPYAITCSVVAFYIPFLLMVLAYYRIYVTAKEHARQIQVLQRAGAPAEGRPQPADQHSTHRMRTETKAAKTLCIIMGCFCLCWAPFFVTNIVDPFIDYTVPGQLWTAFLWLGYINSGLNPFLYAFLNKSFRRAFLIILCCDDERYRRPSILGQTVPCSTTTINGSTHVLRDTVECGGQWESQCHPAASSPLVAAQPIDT

Question: What does the source list for COc1cc(N)c(Cl)cc1C(=O)N[C@H]1CN2CCC1CC2 [(R)ZACOPRIDE]?
Answer: Ki [1]: 2820 nM; Ki [2]: 3.72 nM

Question: For CC(C)n1cnc2c(C(=O)N[C@H]3CN4CCC3CC4)cc(Cl)cc21, which Ki [1] is on record?
Answer: 24 nM

Question: Which Ki [1] does the source give for CC(C)n1cnc2c(C(=O)NC3CC4CCC(C3)N4C)cc(Cl)cc21 (configuration not stated) here?
Answer: 158 nM

Question: What about the Ki [3] of the same compound?
Answer: 1 nM

Question: And the Ki [4]?
Answer: 20 nM

Question: How did the Ki [1] turn out when COc1cc(N)c(Cl)cc1C(=O)N[C@@H]1CN2CCC1CC2 was run?
Answer: 437 nM
